We go through four compounds from paper PMC9841593 (ACS Medicinal Chemistry Letters, 2022).

Molecules are shown by their SMILES. Where only a bound is given, the exact number is not on record here.

What is called pKa is the negative logarithm of the acid dissociation constant.

This data set is described as follows: pH-metric titration of pKa.

For the compound `O=C(O)c1[nH]c(Br)cc(=O)c1O` [Compound 2], the “Measured pKa” value (phenolic proton, pH-metric titration) is reported as 9.79 ± 0.01.

`NC(=O)c1[nH]c(Br)cc(=O)c1O` [Compound 3] displayed a pKa of 9.64 ± 0.02.

Take `N/C(=N\O)c1[nH]c(Br)cc(=O)c1O` [Compound 6]: the pKa stood at 9.06 ± 0.02.

For `O=c1cc(Br)[nH]c(-c2nnn[nH]2)c1O` [Compound 4], the pKa was more than 12.
